Reference: patent US20060004086A1, “Method of reducing Abeta42 and treating diseases” (Mayo Foundation for Medical Education and Research, priority 2000, published 2006)
Like-named read-outs stand apart in the source and are kept apart here.

Columns and labels:
Aβ42 secretion [1] = assay: Aβ40/Aβ42 ELISA of culture supernatants, CHO cells expressing APP751 and PS-1 mutant M146L; format: cell-based, Chinese hamster; details: concentrations up to 100 μM
Procedure: (§1) Cell cultures were maintained in standard cell culture media supplemented with 10% fetal bovine serum and 100 U/mL penicillin/streptomycin (Life Technologies Inc., Germany).
(§2) For analyses of Aβ secretion, APP processing, and notch cleavage, cells were cultured in serum-containing media and pretreated overnight with a specific NSAID. The next day, media were changed and cultures were treated with the same NSAID for another 24 hours.
(§3) Aβ was detected by sandwich enzyme-linked immunosorbent assay (ELISA) as described by Murphy et al. (2000) J Biol Chem 275:26277-84. Following NSAID treatment, culture supernatants were collected, and cell debris was removed by centrifugation. Complete protease inhibitor cocktail (Roche Molecular Biochemicals, IN, USA) was added to the media and Aβ40 and Aβ42 levels were quantified using end-specific Aβ ELISAs. All measurements were performed in duplicate.
Levels of Aβ40 and Aβ42 in culture supernatants were analyzed using ELISA. […] Aβ42/Aβ40 ratios and total Aβ levels (i.e., the sum of Aβ40 and Aβ42 values) were normalized to values obtained from DMSO-treated cells. Results shown were averages of two or three experiments performed in duplicate.
Aβ40 and Aβ42 levels in culture supernatants were analyzed using ELISA as described in Example 3. […] Aβ42/Aβ40 ratios and total Aβ levels were normalized to values obtained from ethanol-treated cells. Results shown were averages of two or three experiments, each performed in duplicate.

APP processing = assay: Western blot of APP, APP CTFs and sAPP, CHO cells expressing APP751; format: cell-based, Chinese hamster; details: 150 μM; data not shown
Excerpt: Expression of holo-APP and APP C-terminal fragments (CTFs) was examined by Western blot analysis using antibody CT-15. APP secretion was examined by Western blotting using a mixture of 5A3/IG7 antibodies. APP turnover was examined by pulse labeling of CHO cells with 150 μCi [^35S]-methionine for fifteen minutes followed by a cold chase step for up to four hours. Cell lysates were immunoprecipitated with antibody CT-15, subjected to SDS-PAGE, and analyzed by phosphor imaging.
Cell lysates were prepared, and steady-state APP levels were examined using 4-12% gradient-gel electrophoresis and western blotting using the polyclonal antibody CT15.

[2] = tested on: Notch intramembrane cleavage; assay: Notch intramembrane cleavage and NICD formation in HEK293 cells; format: cell-based; details: 150 μM; data not shown
Excerpt: Two Notch-encoding vector constructs were used in examining Notch processing. These were a construct expressing a myc-tagged NH2-terminal truncated Notch-1 polypeptide (NotchΔEMV), and a construct expressing only the Notch intracellular cytoplasmic domain (NICD) (see Kopan et al. (1996) Proc Natl Acad Sci USA 93:1683-8). In the construct expressing a myc-tagged NH2-terminal truncated Notch-1 polypeptide, the start codon, a methionine at position 1726, was mutated to a valine to eliminate translation initiation.
Notch intramembrane cleavage and formation of NICD were analyzed in kidney HEK293 cells. The myc-tagged NotchΔEMV construct encoding a constitutively cleaved Notch variant was transiently transfected into HEK293 cells. […] Then they were pulse labeled with ^35S-methionine for thirty minutes and chased for two hours. Cell lysates were prepared and subjected to immunoprecipitation with monoclonal antibody 9E10. Immunoprecipitated proteins were subjected to SDS-PAGE and phosphor imaging analyses.

Aβ42 secretion [3] = assay: Primary in vitro screen, CHO-APP695NL,I,his cells, end-specific Aβ40 and Aβ42 ELISAs; format: cell-based, Chinese hamster; details: Cricetulus griseus, 6 h, six-hour culture supernatants
Procedure: Aβ40 and Aβ42 levels in culture supernatants were determined for each time points using ELISA.
In a primary screen, the effects of NSAIDs on Aβ42 secretion by a CHO cell line that expressed APP(CHO-APP695NL,I,his) were examined. Duplicate cell cultures were treated with (a) a vehicle, (b) 10 μM of NSAID, or (c) 100 μM of NSAID.
To determine Aβ40 and Aβ42 levels, six-hour culture supernatants taken from cells grown in a single well of a twenty-four-well plate were used in end-specific Aβ40 and Aβ42 ELISAs (Suzuki, et al. (1994) Sci 264:[…]). Aβ40 and Aβ42 levels of cultures treated with NSAID were compared with those of cultures treated with the vehicle alone. […] NSAIDs that caused either selective reduction of Aβ42 levels or reduction in both Aβ40 and Aβ42 levels are subjected to a secondary screen.

Aβ42 secretion [4] = assay: Aβ40/Aβ42 ELISA of culture supernatants, CHO cells expressing APP751; format: cell-based, Chinese hamster; details: CHO cells expressing APP751; 20 μM
Procedure: as §1, §2, §3
The effect of sulindac sulfone on Aβ42 secretion was examined. Sulindac sulfone is an oxidation product of the pro-drug sulindac. […] Cell cultures were treated with increasing concentrations of sulindac sulfone. Aβ40 and Aβ42 levels in culture supernatants were analyzed using ELISA.
(§4) Aβ40 and Aβ42 levels in cell culture supernatants were analyzed using ELISA. Aβ42/Aβ40 ratios and total Aβ levels were normalized to values obtained from DMSO-treated cultures. […] NSAIDs were verified using NMR and mass spectrometry.

Aβ42 secretion [5] = assay: Non-selective and selective COX-inhibitors tested for effect on Aβ42 levels in cell cultures (Table 1 summary); format: cell-based; details: for Aβ42/Aβ40 ratio: effect up to the highest conc. tested listed per drug in Table 1
Procedure: All measurements were performed in duplicate.
as §4

[6] = plasma concentration of the drug; cited from earlier work
COX-1/COX-2 = details: cited from earlier work
[7] = cell cultures, cell line and concentration not stated

SMILES	total Aβ levels (Aβ42 secretion [1])	accumulation of APP-CTFs (APP processing)	inhibition of Notch cleavage [2]	activity at 100 µM (Aβ42 secretion [3]; read-out: % Control % Aβ42) [%]	activity at 100 µM (Aβ42 secretion [3]; read-out: % Control Aβ40) [%]	activity at 100 µM (Aβ42 secretion [3]; read-out: % Control Aβ42) [%]	Aβ42/Aβ40 ratio (Aβ42 secretion [4])	Aβ42/Aβ40 ratio (Aβ42 secretion [5])	Plasma [6] [nM]	COX-1/COX-2 selectivity# (1 = equal activity) (COX-1/COX-2)	Aβ42/Aβ40 ratios (Aβ42 secretion [5]; [7])	total Aβ levels (Aβ42 secretion [5]; [7])	activity at 10 µM (Aβ42 secretion [3]; read-out: % Control % Aβ42) [%]	activity at 10 µM (Aβ42 secretion [3]; read-out: % Control Aβ40) [%]	activity at 10 µM (Aβ42 secretion [3]; read-out: % Control Aβ42) [%]
COc1ccc2c(c1)c(CC(=O)O)c(C)n2C(=O)c1ccc(Cl)cc1 [Indomethacin, indomethacin]	not significantly affected	did not cause	did not cause	68	101	69									
CS(=O)(=O)c1ccc(C2=C(c3ccccc3)C(=O)OC2)cc1 [Rofecoxib, rofecoxib]							not seen	no effect	3	.001					
CS(=O)(=O)Nc1ccc([N+](=O)[O-])cc1OC1CCCCC1 [NS-398]								no effect		.07	did not affect	did not affect	132	101	146
